Results published in patent publication US8912216B2, “Hetaryl-[1,8]naphthyridine derivatives” (Merck Patent GmbH, priority 2010, dated 2014).

Experiments:
[1] = tested on: TGF-beta-induced phosphorylation of Smad2 and Smad3 in Mv1-Lu cells; assay: Inhibition of Smad2/3 phosphorylation in Mv1Lu cells (Example 35A); type: cell-based, mink Mustela vison; conditions: Neogale vison, Mv1-Lu cells, TGF-beta 1 5 ng/ml, phospho-Smad2/3 ELISA, read-out: TβR activity (Example 35A)
In short: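 Serum-starved (16-20 h) Mv1-Lu mink lung epithelial cells were pre-incubated 1.5 h with compound dilutions (0.2% DMSO), then stimulated 1 h with 5 ng/ml TGF-beta 1. Phospho-Smad2 (Ser465/467)/Smad3 (Ser423/425) in lysates was measured by ELISA. IC50 came from dose-response fits between stimulated and unstimulated controls.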

GST-ALK5 = target: T1, GST-ALK5 (Homo sapiens, UniProt P36897); assay: In-vitro (enzyme) kinase assay, 384-well flashplate (Example 36); type: biochemical; conditions: GST-ALK5, GST-SMAD2 substrate, 3 mM ATP, 30° C., 45 min; read-out: TβR activity (Example 36)
T1 sequence (P36897 34-503): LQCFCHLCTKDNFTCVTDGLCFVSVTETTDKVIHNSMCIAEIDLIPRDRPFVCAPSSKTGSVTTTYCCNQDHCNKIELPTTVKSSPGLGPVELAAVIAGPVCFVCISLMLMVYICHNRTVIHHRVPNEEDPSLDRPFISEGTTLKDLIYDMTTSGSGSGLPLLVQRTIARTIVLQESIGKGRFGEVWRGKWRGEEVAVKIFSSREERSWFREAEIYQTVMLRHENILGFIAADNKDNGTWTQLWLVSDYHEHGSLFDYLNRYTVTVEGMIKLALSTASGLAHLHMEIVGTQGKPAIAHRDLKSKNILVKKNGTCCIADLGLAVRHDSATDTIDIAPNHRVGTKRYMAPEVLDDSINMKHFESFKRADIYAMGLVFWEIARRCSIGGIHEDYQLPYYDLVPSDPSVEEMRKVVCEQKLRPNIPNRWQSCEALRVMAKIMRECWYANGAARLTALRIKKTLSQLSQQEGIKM
In short: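 Radiometric flashplate assay: 31.2 nM GST-ALK5 phosphorylating 439 nM GST-SMAD2 with 3 mM ATP plus ³³P-ATP, in HEPES/MgCl2/MnCl2/DTT/BSA buffer pH 7.4, 45 min at 30 °C, 5-10 compound concentrations. EDTA stop, filtration and washing, then radioactivity counted; IC50 derived from the curve.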

Structure (SMILES): Fc1ccc(Cl)cc1-c1cc(-c2cncc(-c3cnn(CCN4CCOCC4)c3)c2)c2cccnc2n1 [compound 96, 2-(5-Chloro-2-fluoro-phenyl)-4-{5-[1-(2-morpholin-4-yl-ethyl)-1H-pyrazol-4-yl]-pyridin-3-yl}-[1,8]naphthyridine]
- IC50 [1]: < 100 nM
- IC50 (GST-ALK5): < 100 nM

Structure (SMILES): CN(C)CCCn1cc(-c2cncc(-c3cc(-c4cc(Cl)ccc4F)nc4ncccc34)c2)cn1 [compound 97, [3-(4-{5-[2-(5-Chloro-2-fluoro-phenyl)-[1,8]naphthyridin-4-yl]-pyridin-3-yl}-pyrazol-1-yl)-propyl]-dimethyl-amine]
- IC50 [1]: < 100 nM
- IC50 (GST-ALK5): < 100 nM

Structure (SMILES): Fc1ccc(Cl)cc1-c1cc(-c2cnccc2-c2ccccc2)c2cccnc2n1 [compound 98, 2-(5-Chloro-2-fluoro-phenyl)-4-(4-phenyl-pyridin-3-yl)-[1,8]naphthyridine]
- IC50 [1]: 1000 to 10000 nM
- IC50 (GST-ALK5): 1000 to 10000 nM

Structure (SMILES): Fc1ccc(Cl)cc1-c1cc(-c2cnc3ccccc3c2)c2cccnc2n1 [compound 100, 2-(5-Chloro-2-fluoro-phenyl)-4-quinolin-3-yl-[1,8]naphthyridine]
- IC50 [1]: > 10000 nM
- IC50 (GST-ALK5): 1000 to 10000 nM

Structure (SMILES): Fc1ccc(Cl)cc1-c1cc(-c2cccnc2-c2ccccc2)c2cccnc2n1 [compound 101, 2-(5-Chloro-2-fluoro-phenyl)-4-(2-phenyl-pyridin-3-yl)-[1,8]naphthyridine]
- IC50 [1]: > 10000 nM
- IC50 (GST-ALK5): > 10000 nM

Structure (SMILES): Fc1ccc(Cl)cc1-c1cc(-c2cncc(-c3ccncc3)c2)c2cccnc2n1 [compound 102, 4-[3,4′]Bipyridinyl-5-yl-2-(5-chloro-2-fluoro-phenyl)-[1,8]naphthyridine]
- IC50 [1]: 100 to 1000 nM
- IC50 (GST-ALK5): < 100 nM

Structure (SMILES): Fc1ccc(Cl)cc1-c1cc(-c2cncc(-c3ccccn3)c2)c2cccnc2n1 [compound 103, 4-[2,3′]Bipyridinyl-5′-yl-2-(5-chloro-2-fluoro-phenyl)-[1,8]naphthyridine]
- IC50 [1]: 100 to 1000 nM
- IC50 (GST-ALK5): < 100 nM

Structure (SMILES): Fc1ccc(Cl)cc1-c1cc(-c2cncc(-c3cccnc3)c2)c2cccnc2n1 [compound 104, 4-[3,3′]Bipyridinyl-5-yl-2-(5-chloro-2-fluoro-phenyl)-[1,8]naphthyridine]
- IC50 [1]: 100 to 1000 nM
- IC50 (GST-ALK5): < 100 nM

Structure (SMILES): Fc1ccc(Cl)cc1-c1cc(-c2cncc(-c3ccnc(N4CCNCC4)c3)c2)c2cccnc2n1 [compound 105, 2-(5-Chloro-2-fluoro-phenyl)-4-(2′-piperazin-1-yl-[3,4′]bipyridinyl-5-yl)-[1,8]naphthyridine]
- IC50 [1]: < 100 nM
- IC50 (GST-ALK5): < 100 nM

Structure (SMILES): Fc1ccc(Cl)cc1-c1cc(-c2cncc(-c3cccc(C(F)(F)F)n3)c2)c2cccnc2n1 [compound 106, 2-(5-Chloro-2-fluoro-phenyl)-4-(6-trifluoromethyl-[2,3′]bipyridinyl-5′-yl)-[1,8]naphthyridine]
- IC50 [1]: > 10000 nM
- IC50 (GST-ALK5): 100 to 1000 nM

Structure (SMILES): Fc1ccc(Cl)cc1-c1cc(-c2cncc(-c3ccc(Cl)nn3)c2)c2cccnc2n1 [compound 107, 2-(5-Chloro-2-fluoro-phenyl)-4-[5-(6-chloro-pyridazin-3-yl)-pyridin-3-yl]-[1,8]naphthyridine]
- IC50 [1]: 1000 to 10000 nM
- IC50 (GST-ALK5): 100 to 1000 nM

Structure (SMILES): Fc1ccc(Cl)cc1-c1cc(-c2cncc(-c3ccnc(N4CCOCC4)c3F)c2)c2cccnc2n1 [compound 108, 2-(5-Chloro-2-fluoro-phenyl)-4-(3′-fluoro-2′-morpholin-4-yl-[3,4′]bipyridinyl-5-yl)-[1,8]naphthyridine]
- IC50 [1]: 100 to 1000 nM
- IC50 (GST-ALK5): 100 to 1000 nM

Structure (SMILES): Nc1nccc(-c2cncc(-c3cc(-c4cc(Cl)ccc4F)nc4ncccc34)c2)n1 [compound 109, 4-{5-[2-(5-Chloro-2-fluoro-phenyl)-[1,8]naphthyridin-4-yl]-pyridin-3-yl}-pyrimidin-2-ylamine]
- IC50 [1]: 100 to 1000 nM
- IC50 (GST-ALK5): < 100 nM

Structure (SMILES): Fc1ccc(Cl)cc1-c1cc(-c2cncc(-c3cccc(-n4ccnc4)n3)c2)c2cccnc2n1 [compound 110, 2-(5-Chloro-2-fluoro-phenyl)-4-(6-imidazol-1-yl-[2,3′]bipyridinyl-5′-yl)-[1,8]naphthyridine]
- IC50 [1]: > 10000 nM
- IC50 (GST-ALK5): > 10000 nM

Structure (SMILES): COc1cccc(-c2cncc(-c3cc(-c4cc(Cl)ccc4F)nc4ncccc34)c2)n1 [compound 111, 2-(5-Chloro-2-fluoro-phenyl)-4-(6-methoxy-[2,3′]bipyridinyl-5′-yl)-[1,8]naphthyridine]
- IC50 [1]: 100 to 1000 nM
- IC50 (GST-ALK5): 100 to 1000 nM

Structure (SMILES): CC(C)(C)OC(=O)Nc1cc(-c2cncc(-c3cc(-c4cc(Cl)ccc4F)nc4ncccc34)c2)ccn1 [compound 112, {5-[2-(5-Chloro-2-fluoro-phenyl) [1,8]naphthyridin-4-yl]-[3,4′]bipyridinyl-2′-yl}-carbamic acid tert-butyl ester]
- IC50 [1]: 100 to 1000 nM
- IC50 (GST-ALK5): 100 to 1000 nM

Structure (SMILES): CN1CCN(c2ccc(-c3cncc(-c4cc(-c5cc(Cl)ccc5F)nc5ncccc45)c3)nn2)CC1 [compound 113, 2-(5-Chloro-2-fluoro-phenyl)-4-{5-[6-(4-methyl-piperazin-1-yl)-pyridazin-3-yl]-pyridin-3-yl}-[1,8]naphthyridine]
- IC50 [1]: < 100 nM
- IC50 (GST-ALK5): < 100 nM

Structure (SMILES): CN1CCN(c2ccc(-c3cncc(-c4cc(-c5cc(F)ccc5F)nc5ncccc45)c3)cc2)CC1 [compound 114, 2-(2,5-Difluoro-phenyl)-4-{5-[4-(4-methyl-piperazin-1-yl)-phenyl]-pyridin-3-yl}-[1,8]naphthyridine]
- IC50 [1]: < 100 nM
- IC50 (GST-ALK5): < 100 nM

Structure (SMILES): CC(=O)Nc1cccc(-c2cncc(-c3cc(-c4cc(Cl)ccc4F)nc4ncccc34)c2)n1 [compound 115, N-{5′-[2-(5-Chloro-2-fluoro-phenyl)-[1,8]naphthyridin-4-yl]-[2,3′]bipyridinyl-6-yl}-acetamide]
- IC50 [1]: 100 to 1000 nM
- IC50 (GST-ALK5): < 100 nM

Structure (SMILES): CN1CCN(c2cccc(-c3cncc(-c4cc(-c5cc(Cl)ccc5F)nc5ncccc45)c3)c2)CC1 [compound 116, 2-(5-Chloro-2-fluoro-phenyl)-4-{5-[3-(4-methyl-piperazin-1-yl)-phenyl]-pyridin-3-yl}-[1,8]naphthyridine]
- IC50 [1]: < 100 nM
- IC50 (GST-ALK5): < 100 nM

Structure (SMILES): CN1CCN(c2ccc(-c3cc(-c4cc(-c5cc(Cl)ccc5F)nc5ncccc45)cnn3)cc2)CC1 [compound 117, 2-(5-Chloro-2-fluoro-phenyl)-4-{6-[4-(4-methyl-piperazin-1-yl)-phenyl]-pyridazin-4-yl}-[1,8]naphthyridine]
- IC50 [1]: 100 to 1000 nM
- IC50 (GST-ALK5): 100 to 1000 nM

Structure (SMILES): CN(C)CCNC(=O)c1cccc(-c2cncc(-c3cc(-c4cc(Cl)ccc4F)nc4ncccc34)c2)c1 [compound 118, 3-{5-[2-(5-Chloro-2-fluoro-phenyl)-[1,8]naphthyridin-4-yl]-pyridin-3-yl}-N-(2-dimethylamino-ethyl)-benzamide]
- IC50 [1]: 100 to 1000 nM
- IC50 (GST-ALK5): < 100 nM

Structure (SMILES): CN1CCN(c2cc(-c3cncc(-c4cc(-c5cc(Cl)ccc5F)nc5ncccc45)c3)ncn2)CC1 [compound 119, 2-(5-Chloro-2-fluoro-phenyl)-4-{5-[6-(4-methyl-piperazin-1-yl)-pyrimidin-4-yl]-pyridin-3-yl}-[1,8]naphthyridine]
- IC50 [1]: 100 to 1000 nM
- IC50 (GST-ALK5): 100 to 1000 nM

Structure (SMILES): Fc1ccc(F)c(-c2cc(-c3cncc(-c4ccc(OC5CCNCC5)cc4)c3)c3cccnc3n2)c1 [compound 120, 2-(2,5-DifIuoro-phenyl)-4-{5-[4-(piperidin-4-yloxy)-phenyl]-pyridin-3-yl}-[1,8]naphthyridine]
- IC50 [1]: < 100 nM
- IC50 (GST-ALK5): < 100 nM

Structure (SMILES): CN1CCN(c2ccc(-c3cncc(-c4cc(-c5cc(F)ccc5F)nc5ncccc45)c3)cn2)CC1 [compound 121, 2-(2,5-Difluoro-phenyl)-4-[6′-(4-methyl-piperazin-1-yl)-[3,3′]bipyridinyl-5-yl]-[1,8]naphthyridine]
- IC50 [1]: 100 to 1000 nM
- IC50 (GST-ALK5): < 100 nM

Structure (SMILES): CC(=O)Nc1ccc(-c2cncc(-c3cc(-c4cc(Cl)ccc4F)nc4ncccc34)c2)nn1 [compound 122, N-(6-{5-[2-(5-Chloro-2-fluoro-phenyl)-[1,8]naphthyridin-4-yl]-pyridin-3-yl}-pyridazin-3-yl)-acetamide]
- IC50 [1]: 100 to 1000 nM
- IC50 (GST-ALK5): 100 to 1000 nM

Structure (SMILES): CCN1CCC(c2ccc(-c3cncc(-c4cc(-c5cc(F)ccc5F)nc5ncccc45)c3)cc2)CC1 [compound 123, 2-(2,5-Difluoro-phenyl)-4-{5-[4-(1-ethyl-piperidin-4-yl)-phenyl]-pyridin-3-yl}-[1,8]naphthyridine]
- IC50 [1]: < 100 nM
- IC50 (GST-ALK5): < 100 nM

Structure (SMILES): CCOC(=O)c1cccc(-c2cncc(-c3cc(-c4cc(Cl)ccc4F)nc4ncccc34)c2)n1 [compound 124, 5′-[2-(5-Chloro-2-fluoro-phenyl)-[1,8]naphthyridin-4-yl]-[2,3′]bipyridinyl-6-carboxylic acid ethyl ester]
- IC50 [1]: 100 to 1000 nM
- IC50 (GST-ALK5): 1000 to 10000 nM

Structure (SMILES): Fc1ccccc1-c1cc(-c2cncc(-c3cccnc3)c2)c2cccnc2n1 [compound 125, 4-[3,3′]Bipyridinyl-5-yl-2-(2-fluoro-phenyl)-[1,8]naphthyridine]
- IC50 [1]: 1000 to 10000 nM
- IC50 (GST-ALK5): 1000 to 10000 nM
